This note sets out measurements from patent US10329243B2, “Biphenyl derivative and uses thereof” (XI'AN LIBANG PHARMACEUTICAL CO., LTD, priority 2015, dated 2019).

Assay type in all cases: in vivo, SD rats
Experiment [1] concerns rats with permanent cerebral ischemia injury. As for the experimental part: 336 healthy male SD rats weighing 250-300 g, provided by the Experimental Animal Center of the Fourth Military Medical University, were randomly divided into […]: the sham operation group, the permanent cerebral ischemia model group, and Examples 1-12 groups. The biphenyl derivatives used in each of the Examples 1-12 groups were the same as those in Example 13.
Rats were intraperitoneally injected with 10% chloral hydrate 350 mg/kg after anesthesia and opened up at the center of the neck in accordance with the Zea Longa modified method. The right common carotid artery was separated, and the right external carotid artery branches was ligated. A small opening was made at the distal end of the external carotid artery, and a previously prepared thread was inserted through the common carotid artery and the external carotid artery bifurcation into the internal carotid artery, till the anterior end of the middle cerebral artery, with an immersed depth of 18 to 19 mm. The thread was then secured, and the wound was sutured layer by layer. After the operation, the rats were placed in a clean incubator to wake up. […] The sham operation group, the permanent cerebral ischemia model group, and the Example groups were prepared strictly according to the requirements of the cerebral ischemic reperfusion model, while in the sham operation group the thread was put only into the external carotid artery. The animals were allowed to eat and drink freely after waking up. […] The sham operation group and the permanent cerebral ischemia model group were injected with the same amount of blank PEG400 aqueous solution at the same time point.
The neurological impairment was scored in each group 24 h after the embolism. The scoring was in accordance with the Longa 5-grade method: grade 0: no nerve injury symptom; grade 1: inability of stretching the contralateral forepaw; grade 2: circling to the opposite side; grade 3: tumbling to the opposite side; grade 4: no autonomous activity with loss of consciousness.

Experiment [2] has as its system rats with cerebral ischemic reperfusion injury. As to the method:
336 healthy male SD rats weighing 250-300 g, provided by the Experimental Animal Center of the Fourth Military Medical University, were randomly divided into 14 groups: the sham operation group, the ischemic reperfusion group, and Examples 1-12 groups (i.e., the Example groups).
(§1) Rats were intraperitoneally injected with 10% chloral hydrate 350 mg/kg after anesthesia and opened up at the center of the neck in accordance with the Zea Longa modified method. The right common carotid artery was separated, and the right external carotid artery branches was ligated. A small opening was made at the distal end of the external carotid artery, and a previously prepared thread was inserted through the common carotid artery and the external carotid artery bifurcation into the internal carotid artery, till the anterior end of the middle cerebral artery, with an immersed depth of 18 to 19 mm. The thread was then secured, and the wound was sutured layer by layer. After the operation, the rats were placed in a clean incubator to wake up. […] The sham operation group, the ischemic reperfusion group, and the Example groups were prepared strictly according to the requirements of the cerebral ischemic reperfusion model, while in the sham operation group the thread was put only into the external carotid artery. The animals were allowed to eat and drink freely after waking up. After 2 h, the thread was pulled out to achieve reperfusion. The sham operation group, the ischemic reperfusion group, and the Example groups were administered intravenously the aqueous solution of the biphenyl derivatives in PEG400 at 40 mg/kg (40 mg/kg means that 40 mg of the test compound per kg of the body weight of rats) 30 min before reperfusion and 12 h after reperfusion, respectively. The sham operation group and the ischemic reperfusion group were injected with the same amount of blank PEG400 aqueous solution at the same time point.
The neurological impairment was scored in each group 24 h after reperfusion. The scoring was in accordance with the Longa 5-grade method: grade 0: no nerve injury symptom; grade 1: inability of stretching the contralateral forepaw; grade 2: circling to the opposite side; grade 3: tumbling to the opposite side; grade 4: no autonomous activity with loss of consciousness.

Another experiment deals with Fas. Nature of the experiment: Fas determination (immunohistochemical method), permanent cerebral ischemia model. As for the experimental part:
as §1, with “the permanent cerebral ischemia model” for “the ischemic reperfusion”, “up.” for “up. After 2 h, the thread was pulled out to achieve reperfusion.”, “before insertion of thread” for “before reperfusion”, “after embolism,” for “after reperfusion,”
24 hours after the embolism, 8 rats in each group were sacrificed by decapitation, the brain was removed, rinsed with PBS (pH 7.4) at −20°i for 20 min, evenly sliced (with a thickness of 2 mm), stained in a 2% TTC solution at 37°% in the dark for 30 min, fixed in 10% formalin for 24 h, and photographs were taken to analyze the infarct volume. A mixture of femoral arterial and venous blood was drawn from another 8 rats in each group under anesthesia, placed in a low temperature centrifuge at 4° C., centrifuged at 3500 r/min for 20 min, and the supernatant was stored in a refrigerator at −20° C. ready for SOD and MDA detection. After the blood was drawn, a perfusion needle was insert through the apex to the ascending aorta, and saline at 4° C. was rapid infused until the effluent became clear, followed by 4% paraformaldehyde phosphate buffer perfusion for fixation; the brain was removed by craniotomy, and brain tissues 2 mm in front of and behind the optic chiasma were taken and fixed, dehydrated, rendered transparent, impregnated in wax, and embedded. Brain continuous coronary tissue pathological sections were consecutively cut for later use. The remaining 8 rats in each group were sacrificed, brains were removed, the ischemic brain hemispheres were immediately taken on an ice tray, and 10% brain tissue homogenate was prepared for the detection of IL-1β and TNF-α.
The immunohistochemical method was used for determination. Brain tissue paraffin sections were dewaxed into water, washed with 3% H2O2 to eliminate endogenous peroxidase activity, and rinsed with distilled water for 3 times. Sodium citrate buffer was used for antigen heat repairing, and blocking with calf serum was carried out at room temperature for 15 min; a rabbit anti-mouse Fas antibody was added dropwise, allowed to stand at 4°t overnight, biotinylated goat anti-rabbit IgG was added dropwise, and heated in a water bath at 37°a for 20 min. Washing with PBS for 5 min was continuously repeated 4 times, followed by staining with DAB and sufficient washing without counterstaining. The sections were then gradient dehydrated with alcohol, made transparent with toluene, sealed and fixed. Images were captured by a video camera under high-power optical microscope and inputted into the image analysis system for image analysis. […]

The mark [3] stands for this setting: permanent cerebral ischemia model rats, 40 mg/kg intravenously 30 min before insertion of thread and 12 h after embolism, scored 24 h after the embolism, Longa grade 0-4.
Setting [4] is: ischemic reperfusion MCAO rats, 40 mg/kg intravenously 30 min before and 12 h after reperfusion, scored 24 h after reperfusion, Longa grade 0-4.
Where [5] appears, read: permanent cerebral ischemia model rats, 40 mg/kg intravenously, brain sections 24 h after the embolism, gray scale inversely proportional to positive expression.

Like-named read-outs stand apart in the source and are kept apart here.

Consider “3,3′,5,5′-tetraisopropylbiphenyl-4,4′-bis(oxymethylene phosphate) [Example 3 group]”, for which the “Average score of neurological impairment” value is 2.8 in experiment [1] (setting [3]) and 2.4 in experiment [2] (setting [4]). In the experiment with Fas (rat, in vivo, iv, 40 mg/kg), the “Fas average gray scale” value was 143.39 ± 4.23.

Take `CC1=NN(c2ccccc2)C(=O)C1` [Edaravone injection, edaravone, reference compound]: in the experiment with Fas (permanent cerebral ischemia model rats, edaravone 3 mg/kg), the “Fas average gray value” is given as 138.95 ± 5.50.

`CC(=O)Oc1c(C(C)C)cc(-c2cc(C(C)C)c(O)c(C(C)C)c2)cc1C(C)C` [Example 1 group, 4′-hydroxy-3,3′,5,5′-tetraisopropylbiphenyl-4-acetate]: the figures for the “Average score of neurological impairment” value in experiment [1] (setting [3]) and in experiment [2] (setting [4]) were 2.4 and 2.0, respectively.

As to `CC(=O)Oc1c(C(C)C)cc(-c2cc(C(C)C)c(OC(C)=O)c(C(C)C)c2)cc1C(C)C` [Example 2 group, 3,3′,5,5′-tetraisopropylbiphenyl-4′-diacetate], the “Average score of neurological impairment” value came out at 2.5 in experiment [1] (setting [3]) and 2.1 in experiment [2] (setting [4]). The “Fas average gray scale” value in the experiment with Fas (setting [5]) came out at 149.63 ± 8.15.

As to `CC(C)c1cc(-c2cc(C(C)C)c(OC(=O)CCC(=O)O)c(C(C)C)c2)cc(C(C)C)c1O` [Example 5 group, [4-(4′-hydroxy-3,3′,5,5′-tetraisopropylbiphenyl)oxy]-4-carbonyl butyric acid], the “Average score of neurological impairment” value was 2.4 in experiment [1] (setting [3]) and 2.2 in experiment [2] (setting [4]). Also, the “Fas average gray scale” value with Fas (setting [5]) came out at 143.02 ± 5.53.

For `CCCc1cc(-c2cc(CCC)c(O)c(C(C)C)c2)cc(C(C)C)c1O` [Example 6 group, 4,4′-dihydroxy-3,3′-diisopropyl-5,5′-dipropylbiphenyl], the entries for the “Average score of neurological impairment” value in experiment [1] (setting [3]) and in experiment [2] (setting [4]) were 2.2 and 2.0, respectively. The “Fas average gray scale” value in the experiment on Fas (setting [5]) came to 151.63 ± 5.58.

`CCCc1cc(-c2cc(CCC)c(O)c(CCC)c2)cc(CCC)c1O` [Example 7 group, 4,4′-dihydroxy-3,3′,5,5′-tetrapropylbiphenyl]: the “Average score of neurological impairment” value in experiment [1] (setting [3]) is recorded as 2.3; in experiment [2] (setting [4]) it was 2.1. For the same compound, the “Fas average gray scale” value with Fas (setting [5]) was 153.46 ± 5.73.

On to `CC(C)c1cc(-c2cc(C(C)C)c(C(=O)O)c(C(C)C)c2)cc(C(C)C)c1O` [Example 8 group, 4′-hydroxy-3,3′,5,5′-tetraisopropylbiphenyl-4-carboxylic acid], for which the results for the “Average score of neurological impairment” value in experiment [1] (setting [3]) and in experiment [2] (setting [4]) were 2.7 and 2.3, respectively. Moreover, the “Fas average gray scale” value with Fas (setting [5]) amounted to 145.24 ± 5.26.

`CC(C)c1cc(-c2cc(C(C)C)c(Cl)c(C(C)C)c2)cc(C(C)C)c1O` [Example 9 group, 4-chloro-4′-hydroxy-3,3′,5,5′-tetraisopropylbiphenyl]: the “Average score of neurological impairment” value in experiment [1] (rat, in vivo, iv, 40 mg/kg) worked out at 2.8; in experiment [2] (rat, in vivo, iv, 40 mg/kg), 2.4. Further, the “Fas average gray scale” value in the experiment on Fas (rat, in vivo, iv, 40 mg/kg) turned out to be 144.31 ± 5.49.

Regarding `CC(C)c1cc(-c2cc(C(C)C)c(OC=O)c(C(C)C)c2)cc(C(C)C)c1O` [Example 10 group], the “Average score of neurological impairment” value in experiment [1] (setting [3]) was determined as 2.4; in experiment [2] (setting [4]), 2.2. The “Fas average gray scale” value in the experiment with Fas (setting [5]) stood at 140.62 ± 3.85.

As to `CC(C)c1cc(-c2cc(C(C)C)c(OC(=O)C(N)C(C)C)c(C(C)C)c2)cc(C(C)C)c1O` (stereo not drawn) [Example 11 group, 4′-hydroxy-3,3′,5,5′-tetraisopropylbiphenyl-2-amino-3-methylbutyrate], the “Average score of neurological impairment” value in experiment [1] (setting [3]) was determined as 2.3; in experiment [2] (setting [4]), 2.2. In addition, the “Fas average gray scale” value in the experiment with Fas (setting [5]) stood at 150.72 ± 4.19.

In the case of `CC(=O)OC(C)Oc1c(C(C)C)cc(-c2cc(C(C)C)c(O)c(C(C)C)c2)cc1C(C)C` (stereo not drawn) [Example 12 group, Ethyl 1-(4′-hydroxy-3,3′,5,5′-tetraisopropylbiphenyl-4-oxo)acetate], the “Average score of neurological impairment” value in experiment [1] (setting [3]) is 2.6; in experiment [2] (setting [4]), 2.4. The “Fas average gray scale” value in the experiment on Fas (setting [5]) stood at 139.48 ± 5.72.
